Reference: patent US10800791B2, “Triazole ACC inhibitors and uses thereof” (Gilead Apollo, LLC, priority 2015, dated 2020)
≈ marks a conversion by molar mass, not a printed value. Read-outs that look alike come from different tables or passages of the source.

How the values were obtained:
[1] = system: Fusarium moniliforme (Fm); assay: Growth inhibition assay of fungal pathogens, Fm; type: cell-based; details: for IC90: Fusarium verticillioides, 48 h, read-out: Concentration at 90% Inhibition Fm
How it was run: (§1)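 Inhibition percentages reflect 48 h OD600 and visual scores relative to a 2% DMSO control. Test concentrations were 50, 10, 2 ppm or 2, 0.4, 0.08 ppm final, applied to spores in 17% V8 medium.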

[2] = system: Collectotrichum graminicola (Cg); assay: Growth inhibition assay of fungal pathogens, Cg; type: cell-based; details: 48 h
How it was run: as §1

[3] = system: Phytophthora capsici (Pc); assay: Growth inhibition assay of fungal pathogens, Pc; type: cell-based; details: 48 h
How it was run: as §1

human (hACC2) = human (hACC2) (Homo sapiens, UniProt O00763); assay: In vitro ACC inhibition assay (ADP-Glo), hACC2; type: biochemical; details: 5 nM ACC2, 20 μM ATP, 20 μM acetyl-CoA
Method: The detailed procedure is as follows. […] 10 μL ADP glo reagent was added. […] 20 μL kinase detection reagent was added.

C. parapsilosis = assay: Antifungal Activity Assay (broth microtiter MIC), C. parapsilosis; type: cell-based, Candida parapsilosis; details: Lodderomyces parapsilosis, ATCC22019, 48 h
How it was run: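 CLSI M27-A3 microdilution; RPMI 1640+MOPS; 2.5×10^3 CFU/mL final inoculum; cultures from Sabouraud dextrose agar, 35° C overnight; compound working solution 128 μg/mL from 1 mg/mL DMSO stock; visual MIC at 48 h vs growth control.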

fungal (fACC2) = fungal (fACC2) (UniProt Q00955); details: read-out: fACC2 (in vitro ACC2 Inhibition Assay, IC50), ADP-Glo, 5 nM ACC2, 20 μM ATP, 20 μM acetyl-CoA
Rhizoctonia solani (Rs) = assay: Growth inhibition assay of fungal pathogens, Rs; type: cell-based; details: 48 h
[4] = system: Fusarium virguliforme (Fv); assay: Growth inhibition assay of fungal pathogens, Fv; type: cell-based; details: 48 h
How it was run: as §1

Diplodia maydis (Dm) = assay: Growth inhibition assay of fungal pathogens, Dm; type: cell-based; details: Stenocarpella maydis, 48 h
How it was run: as §1

Septoria tritici (St) = assay: Growth inhibition assay of fungal pathogens, St; type: cell-based; details: Zymoseptoria tritici, 48 h
How it was run: as §1

[5] = Fusarium moniliforme, growth inhibition at 48 hours vs 2% DMSO control
[6] = Fusarium moniliforme, growth inhibition vs 2% DMSO control at 48 hours
[7] = Collectotrichum graminicola, growth inhibition at 48 hours vs 2% DMSO control, read-out: Concentration at 90% Inhibition Cg
[8] = Collectotrichum graminicola, growth inhibition vs 2% DMSO control at 48 hours, read-out: Concentration at 90% Inhibition Cg
[9] = growth inhibition at 48 hours vs 2% DMSO control, read-out: Concentration at 90% Inhibition Pc
[10] = growth inhibition vs 2% DMSO control at 48 hours, read-out: Concentration at 90% Inhibition Pc
[11] = Table 3a, ATCC 22019, 3 replicates, MIC recorded at 48 h, read-out: MIC, C. parapsilosis ATCC 22019
[12] = Table 3b (additional results), ATCC 22019, 3 replicates, MIC recorded at 48 h, read-out: MIC, C. parapsilosis ATCC 22019
[13] = mycelial plugs, growth inhibition at 48 hours vs 2% DMSO control, read-out: Concentration at 90% Inhibition Rs
[14] = mycelial plugs, growth inhibition vs 2% DMSO control at 48 hours, read-out: Concentration at 90% Inhibition Rs
[15] = growth inhibition at 48 hours vs 2% DMSO control, read-out: Concentration at 90% Inhibition Fv
[16] = growth inhibition vs 2% DMSO control at 48 hours, read-out: Concentration at 90% Inhibition Fv
[17] = Diplodia maydis, growth inhibition at 48 hours vs 2% DMSO control, read-out: Concentration at 90% Inhibition Dm
[18] = Diplodia maydis, growth inhibition vs 2% DMSO control at 48 hours, read-out: Concentration at 90% Inhibition Dm
[19] = Septoria tritici, growth inhibition at 48 hours vs 2% DMSO control, read-out: Concentration at 90% Inhibition St
[20] = Septoria tritici, growth inhibition vs 2% DMSO control at 48 hours, read-out: Concentration at 90% Inhibition St

Sequence of fungal (fACC2) (Q00955 whole entry): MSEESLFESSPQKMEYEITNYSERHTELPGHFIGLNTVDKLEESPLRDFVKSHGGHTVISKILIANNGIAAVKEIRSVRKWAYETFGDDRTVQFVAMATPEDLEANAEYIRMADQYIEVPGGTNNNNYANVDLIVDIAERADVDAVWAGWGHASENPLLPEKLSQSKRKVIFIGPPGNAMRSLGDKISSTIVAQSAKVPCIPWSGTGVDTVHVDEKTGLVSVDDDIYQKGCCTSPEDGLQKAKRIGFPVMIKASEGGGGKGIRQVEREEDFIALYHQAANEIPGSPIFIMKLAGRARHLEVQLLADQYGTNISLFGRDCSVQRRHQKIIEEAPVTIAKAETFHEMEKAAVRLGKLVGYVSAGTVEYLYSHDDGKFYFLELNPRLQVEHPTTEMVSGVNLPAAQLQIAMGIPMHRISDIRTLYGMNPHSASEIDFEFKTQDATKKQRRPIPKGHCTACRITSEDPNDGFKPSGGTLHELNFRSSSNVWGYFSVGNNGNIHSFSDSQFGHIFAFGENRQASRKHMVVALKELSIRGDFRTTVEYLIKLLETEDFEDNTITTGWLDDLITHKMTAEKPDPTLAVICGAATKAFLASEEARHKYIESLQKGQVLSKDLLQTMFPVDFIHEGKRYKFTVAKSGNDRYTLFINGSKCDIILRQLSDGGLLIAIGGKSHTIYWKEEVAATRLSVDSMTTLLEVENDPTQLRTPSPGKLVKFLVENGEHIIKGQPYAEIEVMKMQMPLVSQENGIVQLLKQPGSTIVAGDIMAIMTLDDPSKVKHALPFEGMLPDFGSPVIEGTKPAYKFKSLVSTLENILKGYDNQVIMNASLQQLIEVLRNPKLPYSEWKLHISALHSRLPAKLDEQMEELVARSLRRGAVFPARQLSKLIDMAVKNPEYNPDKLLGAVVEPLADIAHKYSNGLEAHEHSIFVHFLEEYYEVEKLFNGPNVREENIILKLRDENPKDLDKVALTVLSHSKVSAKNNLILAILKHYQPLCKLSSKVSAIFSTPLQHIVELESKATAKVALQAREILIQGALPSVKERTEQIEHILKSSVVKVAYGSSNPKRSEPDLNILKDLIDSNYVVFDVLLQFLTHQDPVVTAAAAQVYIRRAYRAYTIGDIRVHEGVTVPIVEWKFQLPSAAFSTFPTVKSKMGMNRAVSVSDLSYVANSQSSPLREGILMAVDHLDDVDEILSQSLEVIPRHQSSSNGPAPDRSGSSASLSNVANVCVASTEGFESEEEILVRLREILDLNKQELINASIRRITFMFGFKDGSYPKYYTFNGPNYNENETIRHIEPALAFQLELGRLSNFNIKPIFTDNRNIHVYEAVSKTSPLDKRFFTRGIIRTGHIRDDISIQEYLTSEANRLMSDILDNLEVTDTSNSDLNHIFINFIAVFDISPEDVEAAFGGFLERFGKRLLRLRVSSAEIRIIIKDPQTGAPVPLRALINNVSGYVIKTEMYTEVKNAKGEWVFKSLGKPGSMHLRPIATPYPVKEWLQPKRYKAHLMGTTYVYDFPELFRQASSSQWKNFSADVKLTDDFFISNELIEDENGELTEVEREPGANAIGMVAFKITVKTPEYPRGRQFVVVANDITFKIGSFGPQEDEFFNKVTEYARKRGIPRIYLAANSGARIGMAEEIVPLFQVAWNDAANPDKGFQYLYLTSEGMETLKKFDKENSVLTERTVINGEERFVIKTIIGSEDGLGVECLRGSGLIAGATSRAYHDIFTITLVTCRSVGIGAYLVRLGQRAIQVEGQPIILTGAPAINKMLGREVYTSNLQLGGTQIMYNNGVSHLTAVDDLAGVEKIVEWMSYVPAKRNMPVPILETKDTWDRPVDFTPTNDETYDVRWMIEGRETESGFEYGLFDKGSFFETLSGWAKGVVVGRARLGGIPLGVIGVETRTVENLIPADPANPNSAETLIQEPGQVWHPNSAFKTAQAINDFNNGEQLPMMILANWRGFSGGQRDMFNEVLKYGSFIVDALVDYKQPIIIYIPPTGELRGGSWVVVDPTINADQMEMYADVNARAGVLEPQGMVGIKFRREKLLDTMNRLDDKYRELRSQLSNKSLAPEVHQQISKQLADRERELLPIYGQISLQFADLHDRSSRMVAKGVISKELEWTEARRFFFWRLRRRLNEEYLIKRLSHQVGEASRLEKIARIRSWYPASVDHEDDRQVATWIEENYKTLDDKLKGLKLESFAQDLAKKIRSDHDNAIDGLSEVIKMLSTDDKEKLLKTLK
Sequence of human (hACC2) (O00763 whole entry): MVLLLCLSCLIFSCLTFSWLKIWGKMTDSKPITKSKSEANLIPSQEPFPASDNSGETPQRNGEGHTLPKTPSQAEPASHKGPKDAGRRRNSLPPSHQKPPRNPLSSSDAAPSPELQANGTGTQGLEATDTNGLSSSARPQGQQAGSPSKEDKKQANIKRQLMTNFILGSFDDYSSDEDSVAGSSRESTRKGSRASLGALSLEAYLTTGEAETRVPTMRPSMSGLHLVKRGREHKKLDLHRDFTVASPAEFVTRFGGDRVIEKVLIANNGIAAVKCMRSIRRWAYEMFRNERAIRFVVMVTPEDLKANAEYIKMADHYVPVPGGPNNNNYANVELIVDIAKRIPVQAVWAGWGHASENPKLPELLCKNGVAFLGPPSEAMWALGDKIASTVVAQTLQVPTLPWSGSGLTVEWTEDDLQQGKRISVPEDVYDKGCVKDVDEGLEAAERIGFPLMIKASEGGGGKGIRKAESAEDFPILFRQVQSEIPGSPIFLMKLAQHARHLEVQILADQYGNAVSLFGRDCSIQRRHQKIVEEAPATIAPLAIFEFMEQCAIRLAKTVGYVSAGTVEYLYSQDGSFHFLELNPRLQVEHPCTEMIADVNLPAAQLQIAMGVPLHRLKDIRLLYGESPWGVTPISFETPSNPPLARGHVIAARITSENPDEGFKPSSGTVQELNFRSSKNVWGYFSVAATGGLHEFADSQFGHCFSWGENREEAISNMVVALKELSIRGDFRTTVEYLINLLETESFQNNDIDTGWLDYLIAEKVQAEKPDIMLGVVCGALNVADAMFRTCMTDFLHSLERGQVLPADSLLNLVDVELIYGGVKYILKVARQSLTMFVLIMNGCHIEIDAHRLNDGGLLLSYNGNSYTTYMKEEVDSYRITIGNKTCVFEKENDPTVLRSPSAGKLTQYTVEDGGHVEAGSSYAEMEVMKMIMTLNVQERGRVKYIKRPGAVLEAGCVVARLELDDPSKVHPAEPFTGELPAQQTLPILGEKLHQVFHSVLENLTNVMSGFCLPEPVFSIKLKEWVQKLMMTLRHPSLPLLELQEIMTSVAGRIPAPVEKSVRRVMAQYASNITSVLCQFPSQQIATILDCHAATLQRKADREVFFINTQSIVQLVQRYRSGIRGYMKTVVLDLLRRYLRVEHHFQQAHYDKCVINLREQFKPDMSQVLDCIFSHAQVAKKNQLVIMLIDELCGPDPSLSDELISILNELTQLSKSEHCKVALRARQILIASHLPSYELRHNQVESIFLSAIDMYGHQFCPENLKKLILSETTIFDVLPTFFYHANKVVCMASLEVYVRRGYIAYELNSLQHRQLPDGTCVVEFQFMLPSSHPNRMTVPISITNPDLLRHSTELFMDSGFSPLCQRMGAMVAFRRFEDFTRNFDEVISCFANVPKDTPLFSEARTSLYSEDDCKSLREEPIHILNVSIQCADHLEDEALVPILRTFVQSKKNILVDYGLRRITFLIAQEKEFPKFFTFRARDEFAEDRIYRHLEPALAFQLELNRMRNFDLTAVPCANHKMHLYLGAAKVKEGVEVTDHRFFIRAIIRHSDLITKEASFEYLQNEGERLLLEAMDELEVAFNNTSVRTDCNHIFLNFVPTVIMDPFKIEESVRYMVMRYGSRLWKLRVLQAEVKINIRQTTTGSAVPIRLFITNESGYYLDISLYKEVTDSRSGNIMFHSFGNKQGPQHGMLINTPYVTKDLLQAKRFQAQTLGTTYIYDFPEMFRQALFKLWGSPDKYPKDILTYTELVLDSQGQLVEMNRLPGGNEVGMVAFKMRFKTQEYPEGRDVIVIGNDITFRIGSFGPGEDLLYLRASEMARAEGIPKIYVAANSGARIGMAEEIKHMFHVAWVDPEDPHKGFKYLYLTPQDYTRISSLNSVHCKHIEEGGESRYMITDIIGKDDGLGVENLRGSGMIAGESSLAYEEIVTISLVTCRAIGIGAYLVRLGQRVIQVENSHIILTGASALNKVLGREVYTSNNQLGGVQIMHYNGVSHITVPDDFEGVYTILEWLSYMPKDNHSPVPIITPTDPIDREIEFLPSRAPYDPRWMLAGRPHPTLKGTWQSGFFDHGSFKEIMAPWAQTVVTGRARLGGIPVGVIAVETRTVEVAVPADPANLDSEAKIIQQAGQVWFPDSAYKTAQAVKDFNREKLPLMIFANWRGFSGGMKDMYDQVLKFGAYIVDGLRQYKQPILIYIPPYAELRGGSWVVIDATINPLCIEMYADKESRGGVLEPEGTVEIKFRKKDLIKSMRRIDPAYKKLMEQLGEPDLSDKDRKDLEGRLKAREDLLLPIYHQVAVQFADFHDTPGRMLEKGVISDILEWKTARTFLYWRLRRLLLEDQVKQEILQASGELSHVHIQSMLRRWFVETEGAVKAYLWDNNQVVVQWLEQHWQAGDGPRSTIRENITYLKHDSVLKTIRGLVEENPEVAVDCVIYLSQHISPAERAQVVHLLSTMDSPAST

COc1ccc(F)cc1[C@H](Cn1c(=O)n([C@H](C)C(=O)N(C)C(C)C)c(=O)c2c(C)c(-n3nccn3)sc21)OCCO [Compound I-85, (R)-2-(1-((R)-2-(5-fluoro-2-methoxyphenyl)-2-(2-hydroxy-ethoxy)ethyl)-5-methyl-2,4-dioxo-6-(2H-1,2,3-triazol-2-yl)-1,4-dihydro-thieno[2,3-d]pyrimidin-3(2H)-yl)-N-isopropyl-N-methylpropanamide]
IC90 [1, 5]: 0.08 µg/mL (≈ 0.136 µM) | IC90 [1, 6]: 0.08 µg/mL (≈ 0.136 µM) | IC90 [2, 7]: 0.08 µg/mL (≈ 0.136 µM) | IC90 [2, 8]: 0.08 µg/mL (≈ 0.136 µM) | IC90 [3, 9]: 2 µg/mL (≈ 3.4 µM) | IC90 [3, 10]: 2 µg/mL (≈ 3.4 µM) | IC50 (human (hACC2); Table 2a): 10 to 40 nM | IC50 (human (hACC2); Table 2b, additional results): 10 to 40 nM | MIC (C. parapsilosis; [11]): 0.25 to 1 µg/mL (≈ 0.425 to 1.7 µM) | MIC (C. parapsilosis; [12]): 2.01 to 4 µg/mL (≈ 3.41 to 6.8 µM) | IC50 (fungal (fACC2); Table 2a): 0.4 to 1 nM | IC50 (fungal (fACC2); Table 2b, additional results): 0.3 to 1 nM | IC90 (Rhizoctonia solani (Rs); [13]): 0.08 µg/mL (≈ 0.136 µM) | IC90 (Rhizoctonia solani (Rs); [14]): 0.08 µg/mL (≈ 0.136 µM) | IC90 [4, 15]: 0.4 µg/mL (≈ 0.68 µM) | IC90 [4, 16]: 0.4 µg/mL (≈ 0.68 µM) | IC90 (Diplodia maydis (Dm); [17]): 0.08 µg/mL (≈ 0.136 µM) | IC90 (Diplodia maydis (Dm); [18]): 0.08 µg/mL (≈ 0.136 µM) | IC90 (Septoria tritici (St); [19]): 2 µg/mL (≈ 3.4 µM) | IC90 (Septoria tritici (St); [20]): 10 µg/mL (≈ 17 µM)

COCCCO[C@@H](Cn1c(=O)n([C@@H](C)C(=O)NC(C)C)c(=O)c2c(C)c(-n3nccn3)sc21)c1cc(F)ccc1OC [Compound I-86, (S)-2-(1-((R)-2-(5-fluoro-2-methoxyphenyl)-2-(3-methoxy-propoxy)ethyl)-5-methyl-2,4-dioxo-6-(2H-1,2,3-triazol-2-yl)-1,4-dihydrothieno[2,3-d]pyrimidin-3(2H)-yl)-N-isopropylpropanamide]
Concentration at 90% Inhibition Fm [1, 5]: AA (compound concentration of 0.08 ppm at 90% inhibition of fungal pathogens) | IC90 [1]: 0.08 µg/mL (≈ 0.133 µM) | IC90 ([2]; read-out: Concentration at 90% Inhibition Cg, Collectotrichum graminicola, growth inhibition at 48 hours vs 2% DMSO control): 10 µg/mL (≈ 16.6 µM) | IC90 ([2]; read-out: Concentration at 90% Inhibition Cg, Collectotrichum graminicola, growth inhibition vs 2% DMSO control at 48 hours): > 50 µg/mL | IC90 ([3]; read-out: Concentration at 90% Inhibition Pc, Phytophthora capsici, growth inhibition at 48 hours vs 2% DMSO control): > 50 µg/mL | IC90 ([3]; read-out: Concentration at 90% Inhibition Pc, Phytophthora capsici, growth inhibition vs 2% DMSO control at 48 hours): > 50 µg/mL | IC50 (human (hACC2); Table 2a): 10 to 40 nM | IC50 (human (hACC2); Table 2b, additional results): 10 to 40 nM | MIC (C. parapsilosis; read-out: MIC, C. parapsilosis ATCC 22019, Table 3a, 3 replicates, MIC recorded at 48 h): 2.1 to 4 µg/mL (≈ 3.48 to 6.64 µM) | MIC (C. parapsilosis; read-out: MIC, C. parapsilosis ATCC 22019, Table 3b (additional results), 3 replicates, MIC recorded at 48 h): 1.01 to 2 µg/mL (≈ 1.68 to 3.32 µM) | IC50 (fungal (fACC2); Table 2a): 1 to 5 nM | IC50 (fungal (fACC2); Table 2b, additional results): 1 to 5 nM | IC90 (Rhizoctonia solani (Rs); read-out: Concentration at 90% Inhibition Rs, Rhizoctonia solani, mycelial plugs, growth inhibition at 48 hours vs 2% DMSO control): 2 µg/mL (≈ 3.32 µM) | IC90 (Rhizoctonia solani (Rs); read-out: Concentration at 90% Inhibition Rs, Rhizoctonia solani, mycelial plugs, growth inhibition vs 2% DMSO control at 48 hours): 2 µg/mL (≈ 3.32 µM) | IC90 ([4]; read-out: Concentration at 90% Inhibition Fv, Fusarium virguliforme, growth inhibition at 48 hours vs 2% DMSO control): 10 µg/mL (≈ 16.6 µM) | IC90 ([4]; read-out: Concentration at 90% Inhibition Fv, Fusarium virguliforme, growth inhibition vs 2% DMSO control at 48 hours): > 50 µg/mL | IC90 (Diplodia maydis (Dm); read-out: Concentration at 90% Inhibition Dm, Diplodia maydis, growth inhibition at 48 hours vs 2% DMSO control): 2 µg/mL (≈ 3.32 µM) | IC90 (Diplodia maydis (Dm); read-out: Concentration at 90% Inhibition Dm, Diplodia maydis, growth inhibition vs 2% DMSO control at 48 hours): 2 µg/mL (≈ 3.32 µM) | IC90 (Septoria tritici (St); read-out: Concentration at 90% Inhibition St, Septoria tritici, growth inhibition at 48 hours vs 2% DMSO control): > 50 µg/mL | IC90 (Septoria tritici (St); read-out: Concentration at 90% Inhibition St, Septoria tritici, growth inhibition vs 2% DMSO control at 48 hours): > 50 µg/mL

COCCCO[C@@H](Cn1c(=O)n([C@H](C)C(=O)NC(C)C)c(=O)c2c(C)c(-n3nccn3)sc21)c1cc(F)ccc1OC [Compound I-87, (R)-2-(1-((R)-2-(5-fluoro-2-methoxyphenyl)-2-(3-methoxy-propoxy)ethyl)-5-methyl-2,4-dioxo-6-(2H-1,2,3-triazol-2-yl)-1,4-dihydrothieno[2,3-d]pyrimidin-3(2H)-yl)-N-isopropylpropanamide]
IC90 [1, 5]: 0.08 µg/mL (≈ 0.133 µM) | IC90 [1, 6]: 0.08 µg/mL (≈ 0.133 µM) | IC90 [2, 7]: 0.08 µg/mL (≈ 0.133 µM) | IC90 [2, 8]: 0.08 µg/mL (≈ 0.133 µM) | IC90 [3, 9]: > 50 µg/mL | IC90 [3, 10]: > 50 µg/mL | IC50 (human (hACC2); Table 2a): 5 to 10 nM | IC50 (human (hACC2); Table 2b, additional results): 5 to 10 nM | MIC (C. parapsilosis; [11]): 0.25 to 1 µg/mL (≈ 0.415 to 1.66 µM) | MIC (C. parapsilosis; [12]): 1.01 to 2 µg/mL (≈ 1.68 to 3.32 µM) | IC50 (fungal (fACC2); Table 2a): 1 to 5 nM | IC50 (fungal (fACC2); Table 2b, additional results): 1 to 5 nM | IC90 (Rhizoctonia solani (Rs); [13]): 0.08 µg/mL (≈ 0.133 µM) | IC90 (Rhizoctonia solani (Rs); [14]): 0.08 µg/mL (≈ 0.133 µM) | IC90 [4, 15]: 0.08 µg/mL (≈ 0.133 µM) | IC90 [4, 16]: 0.08 µg/mL (≈ 0.133 µM) | IC90 (Diplodia maydis (Dm); [17]): 0.4 µg/mL (≈ 0.664 µM) | IC90 (Diplodia maydis (Dm); [18]): 0.4 µg/mL (≈ 0.664 µM) | IC90 (Septoria tritici (St); [19]): 10 µg/mL (≈ 16.6 µM) | IC90 (Septoria tritici (St); [20]): > 50 µg/mL
